# Test results reported in patent US20080267861A1, “Myocardial Perfusion Imaging” (CV THERAPEUTICS, INC., priority 2007, published 2008).
# Experiments:
# [1] = tested on: patients requiring pharmacologic MPI; experiment: Adverse events during MPI protocols; type: in vivo, human; conditions: for frequency of dyspnea: 39 crossover patients
# Method: (§1) In this multicenter study, subjects requiring pharmacologic MPI based on clinical criteria received adenosine infusion (Astellas Pharma, Inc.), 140 mcg/kg/min over 6 min in the supine position (AdenoSup), following enrollment and were then randomized (2:1) in a double-blind manner to a novel protocol (RegEx) consisting of 4 min of sub-maximal exercise (1.7 mph at 0% grade) with bolus intravenous injection of 400 mcg Regadenoson at 1.5 min and ^99mTechnetium-Sestamibi at 2 min or matching placebos (PlcEx).
# (§2) The primary objective was to assess the overall safety of Regadenoson in patients undergoing low-level stress by comparing hemodynamic, cardiac rhythm and adverse effects of the 3 protocols. In addition, patient acceptance was determined by comparing patient comfort and test protocol preference using questionnaires. Three blinded expert readers independently interpreted randomly presented perfusion scans at a nuclear core lab (Services NucMed, Montreal, Canada). Image quality was compared between AdenoSup and RegEx by computation of heart-to-liver and heart-to-gut ratios and the readers' visual assessment of overall image quality and image quality with respect to subdiaphragmatic interference specifically. A 17-segment MPI model was used by the core lab readers, to compare the extent of the perfusion defect between RegEx and AdenoSup quantitatively and also qualitatively with side-by-side visual comparison. Patients were required to abstain from methylxanthine-containing foods and beverages for 12 hours prior to receiving study drug and adenosine. The protocol was approved by an institutional review board and all patients provided written informed consent.
# (§3) Changes in blood pressure, heart rate, and ECG intervals were computed over time and compared (Regadenoson vs. placebo) using repeated measures, mixed-model ANOVA. The incidence of symptomatic hypotension, systolic blood pressure decreases of >20 mm Hg, ECG abnormalities, and severe or related adverse events was compared using Fisher's exact test. The quality of nuclear MPI scans following regadenoson and low-level exercise was compared to adenosine-supine MPI scans of the same subject using the sign test. Radiotracer target-to-background ratios were computed and compared between the two imaging regimens using the Wilcoxon signed ranks test. Semi-quantitative scoring of perfusion defects (Summed Stress Score (SSS), Summed Difference Score (SDS), etc.) was conducted using a 17-segment polar map and the quality of agreement between the two imaging regimens was assessed using […]
# [2] = tested on: patients requiring pharmacologic MPI; experiment: Hemodynamic, cardiac rhythm and ECG effects of MPI protocols; type: in vivo, human; conditions: for effects on ECG intervals: AdenoSup, RegEx and PlcEx compared; for patients with arrhythmias following both AdenoSup and RegEx / patients with arrhythmias following this protocol only: adverse events or ECG findings; for occurrences of 2nd degree or higher AV block: in vivo
# Method: as §1, §2, §3
# [3] = tested on: patients requiring pharmacologic MPI; experiment: SPECT myocardial perfusion imaging: heart-to-background ratios, image quality, perfusion defects; type: in vivo, human; conditions: for heart-to-gut ratio, mean (SD) / heart-to-liver ratio, mean (SD) / heart-to-liver+gut ratio, mean (SD): 39 patients undergoing both scans, 99mTc-Sestamibi
# Method: as §1
# Prior to randomization, patients were stratified based on the presence of reversible perfusion defects, defined as a two or more segments with a stress score >rest score and a stress score >2 on a 5-category scale, as interpreted by a board-certified nuclear cardiologist at each site. The 5-category scale, used both for stratifying patients and for evaluation of perfusion defects on study, was as follows: 0=normal; 1=mild reduction in tracer uptake, not definitely abnormal; 2=moderate reduction in uptake, definitely abnormal; 3=severe reduction in uptake; 4=absent uptake.
# as §2
# Nuclear imaging was performed using either a dual isotope protocol or a two-day ^99mTechnetium-Sestainibi protocol at the investigators' discretion. However, men with body weight >220 pounds and body mass index >30 kg/m2 and women with body weight >200 pounds and body mass index >30 kg/m2 were to undergo the two day protocol. The single photon emission computed tomography (SPECT) imaging was standardized for image acquisition and transmittal in accordance with the American Society of Nuclear Cardiology guidelines. The protocol required an extra ˜8 mSv radiation to the patients in the study arm, and none to the patients in the control (placebo exercise) arm.
# The dual isotope protocol was performed over 2 separate days. On the first day, patients were to have a rest scan with ^201Thallium followed by a ^99mTechnetium-Sestamibi adenosine-supine MPI; on a subsequent day, patients underwent a ^99mTechnetium-Sestamibi study drug (i.e., regadenoson or placebo) sub-maximal treadmill exercise MPI.
# The multi-day ^99mTechnetium-Sestamibi was performed over 3 days. On the first day, patients were to have a ^99mTechnetium-Sestamibi adenosine supine MPI or ^99mTechnetium-Sestamibi rest scan. […] The second and third days were not necessarily consecutive to the first day.
# The stress MPI scans were to be performed 60±10 minutes after the start of adenosine or study drug.
# Changes in blood pressure, heart rate, and ECG intervals were computed over time and compared (Regadenoson vs. placebo) using repeated measures, mixed-model ANOVA. The incidence of symptomatic hypotension, systolic blood pressure decreases of >20 mm Hg, ECG abnormalities, and severe or related adverse events was compared using Fisher's exact test. […]
# [4] = tested on: patients requiring pharmacologic MPI; experiment: Patient comfort and test protocol preference questionnaires; type: in vivo, human; conditions: for tolerability: 400 mcg bolus during low-level exercise
# Method: as §2
# Cohen's kappa for the categories 0-3, 4-7, 8-11, and >12 (SSS) and 0-6, 7-13, and >14 (SDS). The number of segments with reversible perfusion defects was defined as the median number across the three readers. Subject comfort and tolerability were assessed using a 4-point scale and the regimens compared using a Cochran-Mantel-Haenszel test of equality of mean scores. Data are expressed as mean (SD) unless otherwise specified. Statistical analyses were conducted using SAS version 9.1. Statistical significance was defined as a p-value of <0.05.
# [5] = relative to adenosine; cited from earlier work
# [6] = AdenoSup, later randomized to RegEx (n = 39)
compound,measurement,setting,value
"Nc1ncnc2c1ncn2[C@@H]1O[C@H](CO)[C@@H](O)[C@H]1O [Adenosine, adenosine, reference compound]",frequency of dyspnea,[1],41%
same,patients with at least one adverse event,[1]; 62 patients dosed,95%
same,"Adverse event: Stomach Discomfort, patients","[1]; AdenoSup, later randomized to PlcEx (n = 21)",0
same,"Adverse event: Dizziness, patients",[1]; [6],0
same,"Adverse event: Pain in Jaw, patients",[1]; [6],0
same,patients with severe adverse events,[1]; AdenoSup: of 60 patients,4
same,patients with protocol-defined symptomatic hypotension,[1]; in vivo,One
same,patients with severe adverse events,[1]; of 60 patients,6.7%
same,effects on ECG intervals,[2],similar
same,patients with arrhythmias following both AdenoSup and RegEx,[2],2
same,patients with arrhythmias following this protocol only,[2],3
same,occurrences of 2nd degree or higher AV block,[2],one
same,"peak heart rate, increase from resting baseline",[2]; mean (SE),+21.0 (SE 2.5) bpm
same,"heart-to-gut ratio, mean (SD)",[3],0.97 (0.34)
same,"heart-to-liver ratio, mean (SD)",[3],0.65 (0.26)
same,"heart-to-liver+gut ratio, mean (SD)",[3],0.72 (0.18)
same,patients in whom reversible perfusion defects were detected,[3]; of 39 patients,51.3%
same,patients in whom reversible perfusion defects were detected,[3]; out of 39 patients,20
"CNC(=O)c1cnn(-c2nc(N)c3ncn([C@@H]4O[C@H](CO)[C@@H](O)[C@H]4O)c3n2)c1 [Regadenoson, (1-{9-[(4S,2R,3R,5R)-3,4-dihydroxy-5-(hydroxymethyl)oxolan-2-yl]-6-aminopurin-2-yl}pyrazol-4-yl)-N-methylcarboxamide]",patients reporting being very uncomfortable or extremely uncomfortable,[4]; 4-point scale,No patients
same,"patients reporting the test as ""a little uncomfortable""",[4]; 4-point scale,41%
same,"patients reporting the test as ""comfortable""",[4]; 4-point scale,59%
same,tolerability,[4],feasible and well tolerated
same,tolerability,[4]; listed as RegEx,well tolerated
same,frequency of dyspnea,[1],54%
same,patients with severe adverse events,[1]; AdenoSup: of 60 patients,no patient
same,"Adverse event: Chest Pain, patients",[1]; RegEx (n = 39),0
same,"Adverse event: Pain in Jaw, patients",[1]; RegEx (n = 39),0
same,"Adverse event: Throat tightness, patients",[1]; RegEx (n = 39),0
same,patients with at least one adverse event,[1]; n=39,77%
same,heart rate over the pre-exercise baseline,"[2]; 24 minutes following start of exercise, mean (SE)",+4.6 (SE 1.5) bpm
same,effects on ECG intervals,[2],similar
same,peak heart rate greater than following AdenoSup,[2]; RegEx vs AdenoSup,21 bpm
same,peak heart rate greater than following PlcEx,[2]; RegEx vs PlcEx,13 bpm
same,"systolic blood pressure analyses (change in mean SBP, nadir SBP, decline >20 mm Hg)",[2]; RegEx vs PlcEx and vs AdenoSup,no important differences
same,patients with arrhythmias following both AdenoSup and RegEx,[2],2
same,patients with arrhythmias following this protocol only,[2],1
same,heart rate higher than the pre-exercise baseline,[2]; by 24 minutes following the study drug bolus,< 5 bpm
same,occurrences of 2nd degree or higher AV block,[2],No occurrences
same,"peak heart rate, increase from resting baseline",[2]; mean (SE),41.9 (SE 2.7) bpm
same,increase of mean maximum heart rate over sub-maximal exercise with placebo,[2]; with sub-maximal exercise,16.5 beats per minute
same,mean maximum heart rate increase,[2]; with sub-maximal exercise (Discussion),+40.2 (1.5) bpm
same,"heart-to-gut ratio, mean (SD)",[3],1.1 (0.36)
same,"heart-to-liver ratio, mean (SD)",[3],0.85 (0.34)
same,"heart-to-liver+gut ratio, mean (SD)",[3],0.93 (0.26)
same,"image quality with respect to subdiaphragmatic interference, side-by-side RegEx vs AdenoSup","[3]; 39 patients, blinded readers",significantly better
same,"overall image quality, side-by-side comparison RegEx vs AdenoSup","[3]; 39 patients, blinded readers, listed as RegEx",significantly better overall image quality
same,patients in whom reversible perfusion defects were detected,[3]; of 39 patients,64.1%
same,patients in whom reversible perfusion defects were detected,[3]; out of 39 patients,25
OCCN(CCO)c1nc(N2CCCCC2)c2nc(N(CCO)CCO)nc(N3CCCCC3)c2n1 [dipyridamole],half-life,[5],longer than that of adenosine
